Laboratory results taken from publication PMC11374673, “Discovery of isoquinoline sulfonamides as allosteric gyrase inhibitors with activity against fluoroquinolone-resistant bacteria” (Nature Chemistry, 2024).
In brackets after ≈: the same amount, converted by molar mass. Several values for one entry are separate records, joined by “and”; a condition that tells them apart may be missing. Equal entries are not always repeated.

Columns and labels:
K. pneumoniae ATCC 29665 = experiment: MIC by broth microdilution; format: cell-based, Klebsiella pneumoniae; settings: Klebsiella pneumoniae, ATCC29665, read-out: MIC K. pneumoniae ATCC 29665
Outline: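 Exponential-phase cultures (OD600 0.5, 37 °C aerobic), diluted 100-fold in CAMHB, were added to twofold compound dilution series. Keio strains grown with 50 µg ml^−1 kanamycin. Plates incubated overnight at 37 °C, shaking at 600 r.p.m.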

E. coli W3110 = experiment: Checkerboard assay with PMBN;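 as to checkerboard plate reading, Average values: OD600 read after 20 h incubation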;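 as to checkerboard plate reading, replicate wells: OD600 read after 20 h incubation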

O=S(=O)(NC[C@@H]1CC[C@H](c2ccc(-c3cccnc3)cc2)N1)c1cccc2cnccc12 [LEI-800]
MIC (K. pneumoniae ATCC 29665): 6.25 µM (≈ 2.78 µg/mL)
MIC (E. coli W3110; Escherichia coli, W3110): 3.13 µM
checkerboard plate reading, replicate wells (E. coli W3110; LEI-800 0.0488281 µM + PMBN 0 µM): 0.6247 and 0.5887 and 0.5873
checkerboard plate reading, Average values (E. coli W3110; LEI-800 0.0488281 µM + PMBN 0 µM (by position)): 0.6003
checkerboard plate reading, replicate wells (E. coli W3110; LEI-800 0.0488281 µM + PMBN 0.5 µM): 0.5854 and 0.5839 and 0.7031
checkerboard plate reading, Average values (E. coli W3110; LEI-800 0.0488281 µM + PMBN 0.5 µM (by position)): 0.5871
checkerboard plate reading, replicate wells (E. coli W3110; LEI-800 0.0488281 µM + PMBN 1 µM): 0.5898 and 0.5581 and 0.551
checkerboard plate reading, Average values (E. coli W3110; LEI-800 0.0488281 µM + PMBN 1 µM (by position)): 0.5855
checkerboard plate reading, replicate wells (E. coli W3110; LEI-800 0.0488281 µM + PMBN 2 µM): 0.674 and 0.6137 and 0.6739
checkerboard plate reading, Average values (E. coli W3110; LEI-800 0.0488281 µM + PMBN 2 µM (by position)): 0.6241
checkerboard plate reading, replicate wells (E. coli W3110; LEI-800 0.0488281 µM + PMBN 4 µM): 0.5444 and 0.5786 and 0.5784
checkerboard plate reading, Average values (E. coli W3110; LEI-800 0.0488281 µM + PMBN 4 µM (by position)): 0.615
checkerboard plate reading, replicate wells (E. coli W3110; LEI-800 0.0488281 µM + PMBN 8 µM): 0.315 and 0.3156 and 0.322
checkerboard plate reading, Average values (E. coli W3110; LEI-800 0.0488281 µM + PMBN 8 µM (by position)): 0.6041
checkerboard plate reading, replicate wells (E. coli W3110; LEI-800 0.0488281 µM + PMBN 16 µM): 0.3097 and 0.3235 and 0.4832
checkerboard plate reading, Average values (E. coli W3110; LEI-800 0.0488281 µM + PMBN 16 µM (by position)): 0.5663
checkerboard plate reading, replicate wells (E. coli W3110; LEI-800 0.0488281 µM + PMBN 32 µM): 0.3631 and 0.3487 and 0.3575
checkerboard plate reading, Average values (E. coli W3110; LEI-800 0.0488281 µM + PMBN 32 µM (by position)): 0.6049
checkerboard plate reading, replicate wells (E. coli W3110; LEI-800 0.0976562 µM + PMBN 0 µM): 0.5677 and 0.5498 and 0.5376
checkerboard plate reading, Average values (E. coli W3110; LEI-800 0.0976562 µM + PMBN 0 µM (by position)): 0.5517
checkerboard plate reading, replicate wells (E. coli W3110; LEI-800 0.0976562 µM + PMBN 0.5 µM): 0.5272 and 0.5363 and 0.6045
checkerboard plate reading, Average values (E. coli W3110; LEI-800 0.0976562 µM + PMBN 0.5 µM (by position)): 0.5382
checkerboard plate reading, replicate wells (E. coli W3110; LEI-800 0.0976562 µM + PMBN 1 µM): 0.5455 and 0.5265 and 0.5304
checkerboard plate reading, Average values (E. coli W3110; LEI-800 0.0976562 µM + PMBN 1 µM (by position)): 0.5337
checkerboard plate reading, replicate wells (E. coli W3110; LEI-800 0.0976562 µM + PMBN 2 µM): 0.528 and 0.523 and 0.4812
checkerboard plate reading, Average values (E. coli W3110; LEI-800 0.0976562 µM + PMBN 2 µM (by position)): 0.556
checkerboard plate reading, replicate wells (E. coli W3110; LEI-800 0.0976562 µM + PMBN 4 µM): 0.3324 and 0.3512 and 0.3333
checkerboard plate reading, Average values (E. coli W3110; LEI-800 0.0976562 µM + PMBN 4 µM (by position)): 0.5558
checkerboard plate reading, replicate wells (E. coli W3110; LEI-800 0.0976562 µM + PMBN 8 µM): 0.2503 and 0.2429 and 0.246
checkerboard plate reading, Average values (E. coli W3110; LEI-800 0.0976562 µM + PMBN 8 µM (by position)): 0.5538
checkerboard plate reading, replicate wells (E. coli W3110; LEI-800 0.0976562 µM + PMBN 16 µM): 0.2399 and 0.265 and 0.2959
checkerboard plate reading, Average values (E. coli W3110; LEI-800 0.0976562 µM + PMBN 16 µM (by position)): 0.5341
checkerboard plate reading, replicate wells (E. coli W3110; LEI-800 0.0976562 µM + PMBN 32 µM): 0.2697 and 0.2568 and 0.2475
checkerboard plate reading, Average values (E. coli W3110; LEI-800 0.0976562 µM + PMBN 32 µM (by position)): 0.5346
checkerboard plate reading, Average values (E. coli W3110; LEI-800 0.195312 µM + PMBN 0 µM (by position)): 0.5248
checkerboard plate reading, Average values (E. coli W3110; LEI-800 0.195312 µM + PMBN 0.5 µM (by position)): 0.5135
checkerboard plate reading, Average values (E. coli W3110; LEI-800 0.195312 µM + PMBN 1 µM (by position)): 0.5141
checkerboard plate reading, Average values (E. coli W3110; LEI-800 0.195312 µM + PMBN 2 µM (by position)): 0.5165
checkerboard plate reading, Average values (E. coli W3110; LEI-800 0.195312 µM + PMBN 4 µM (by position)): 0.4968
checkerboard plate reading, Average values (E. coli W3110; LEI-800 0.195312 µM + PMBN 8 µM (by position)): 0.478
checkerboard plate reading, Average values (E. coli W3110; LEI-800 0.195312 µM + PMBN 16 µM (by position)): 0.4685
checkerboard plate reading, Average values (E. coli W3110; LEI-800 0.195312 µM + PMBN 32 µM (by position)): 0.4392
checkerboard plate reading, Average values (E. coli W3110; LEI-800 0.390625 µM + PMBN 0 µM (by position)): 0.4881
checkerboard plate reading, Average values (E. coli W3110; LEI-800 0.390625 µM + PMBN 0.5 µM (by position)): 0.4714
checkerboard plate reading, Average values (E. coli W3110; LEI-800 0.390625 µM + PMBN 1 µM (by position)): 0.4607
checkerboard plate reading, Average values (E. coli W3110; LEI-800 0.390625 µM + PMBN 2 µM (by position)): 0.4461
checkerboard plate reading, Average values (E. coli W3110; LEI-800 0.390625 µM + PMBN 4 µM (by position)): 0.399
checkerboard plate reading, Average values (E. coli W3110; LEI-800 0.390625 µM + PMBN 8 µM (by position)): 0.3657
checkerboard plate reading, Average values (E. coli W3110; LEI-800 0.390625 µM + PMBN 16 µM (by position)): 0.3222
checkerboard plate reading, Average values (E. coli W3110; LEI-800 0.390625 µM + PMBN 32 µM (by position)): 0.2778
checkerboard plate reading, Average values (E. coli W3110; LEI-800 0.78125 µM + PMBN 0 µM (by position)): 0.4191
checkerboard plate reading, Average values (E. coli W3110; LEI-800 0.78125 µM + PMBN 0.5 µM (by position)): 0.3258
checkerboard plate reading, Average values (E. coli W3110; LEI-800 0.78125 µM + PMBN 1 µM (by position)): 0.2348
checkerboard plate reading, Average values (E. coli W3110; LEI-800 0.78125 µM + PMBN 2 µM (by position)): 0.1359
checkerboard plate reading, Average values (E. coli W3110; LEI-800 0.78125 µM + PMBN 4 µM (by position)): 0.1369
checkerboard plate reading, Average values (E. coli W3110; LEI-800 0.78125 µM + PMBN 8 µM (by position)): 0.1405
